Read-outs that look alike come from different tables or passages of the source.
Assays:
hM4 = biological target: T1, hM4 (Homo sapiens, UniProt P08173); test: Cellular cAMP Gi HTRF assay in CHO cells, agonist and potentiator modes; format: cell-based
T1 construct: expressed in transfected cells; host or cells: CHO cells stably expressing human M4 (G418 selection only)
T1 sequence (P08173 1-479): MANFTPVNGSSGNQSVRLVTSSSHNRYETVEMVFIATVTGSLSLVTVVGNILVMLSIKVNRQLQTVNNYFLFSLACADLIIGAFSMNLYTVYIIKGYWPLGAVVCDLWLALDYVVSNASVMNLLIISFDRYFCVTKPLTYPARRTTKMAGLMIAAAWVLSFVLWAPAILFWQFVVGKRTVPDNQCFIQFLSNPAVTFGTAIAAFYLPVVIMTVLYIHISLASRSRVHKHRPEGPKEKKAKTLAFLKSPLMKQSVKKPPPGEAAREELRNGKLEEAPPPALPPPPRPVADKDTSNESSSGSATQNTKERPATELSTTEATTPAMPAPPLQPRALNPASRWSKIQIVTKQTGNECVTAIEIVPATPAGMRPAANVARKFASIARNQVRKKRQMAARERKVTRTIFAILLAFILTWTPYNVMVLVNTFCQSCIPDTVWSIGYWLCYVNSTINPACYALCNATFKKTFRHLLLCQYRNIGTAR
Text: Activation of the M4 receptor leads to the inhibition of cAMP production by coupling to Gi/o proteins. To measure the level of cAMP inhibition by M4 allosteric modulators, a Homogeneous Time-Resolved Fluorescence (HTRF®) cAMP assay was employed using CHO cells stably expressing human or rat M4 receptors. The HTRF cAMP assay is a Time-Resolved Resonance Energy Transfer (TR-FRET) competitive immunoassay. Endogenous intracellular cAMP generated by cells competes with Europium cryptate-labeled cAMP (Europium donor, emission […]) for the binding to a cAMP antibody labeled with d2 (d2-acceptor, emission […]). Thus, the fluorescence emission ratio (665 nm/620 nm) is inversely proportional to the cAMP amount in the cells. Compound-mediated M4 activation results in an increase in HTRF ratio (665 nm/620 nm), indicative of a decrease in intracellular cAMP level. To monitor agonist activity, compounds were added to the M4 cells in the presence of an EC80 concentration of forskolin (adenylyl cyclase activator) which induces a submaximal intracellular cAMP level. To assess potentiator activity, compounds were added to the M4 cells with an EC80 concentration of forskolin in the presence of an EC20 concentration of acetylcholine. This functional assay allows determination of the potency and efficacy of compounds directly activating or potentiating the Gi/o-coupled M4 receptor; representative data are shown in Table 3.
Functional agonist and potentiator activities of compounds were determined by measuring cAMP levels in Chinese Hamster Ovary (CHO) cells stably expressing human or rat M4 muscarinic receptors using an HTRF cAMP Gi/o kit. Cells were maintained in F12 medium containing 10% FBS, 20 mM HEPES, 1× Antibiotic/Antimycotic, and G418 (500 μg/ml) in 37° C. humidified incubators in the presence of 5% CO2. The day before assay, the cells were trypsinized and resuspended in plating medium (growth medium without G418). The cells were plated to white, solid, flat-bottomed, 384 well plates at densities of 4,000 and 6,000 cells/[…]/well, of human M4 and rat M4 cells, respectively. The cell plates were spun at 100×g for 1 min, then immediately placed in a 37° C. incubator in the presence of 5% CO2 overnight.
The next day, reagents were freshly diluted at a 2× concentration in assay buffer using F12 basal medium or stimulation buffer. All assay buffers contained 500 μM IBMX to block cAMP degradation. Activation of M4 by compounds was examined in cells stimulated with an EC80 concentration of forskolin to induce submaximal intracellular cAMP levels. Forskolin EC80 concentrations were determined from forskolin concentration response curves (CRCs) and ranged from 1.5 to 2.5 μM. Compounds (10 mM) were prepared in 100% DMSO and further serially diluted either 1:3 or 1:5 into a […] CRC in DMSO using a Bravo Liquid Handler in a 384 well microplate.
Agonist assay mode was used to assess the abilities of M4 compounds to directly activate M4 receptors in the absence of the agonist, acetylcholine. The 10-point serially diluted compounds, starting 30 μM as a final concentration, were transferred to a compound plate using an Echo plate reformat protocol. 2× assay buffer containing an EC80 concentration of forskolin concentration was added to the compound plate. Vehicle (1% DMSO) was added to the following control wells; baseline cAMP (no forskolin), forskolin max, and forskolin EC80. 10 μL/well of the prepared 2× assay buffer was immediately added to the cell plates using a Bravo 384 well tip liquid handler. The cell plates were immediately spun for 30 seconds at 100×g and incubated at 37° C. for 10 min with gentle shaking at 50 rpm. An acetylcholine CRC was also performed in the presence of an EC80 concentration of forskolin to determine the concentrations of acetylcholine inducing maximal (ECmax) and submaximal (EC20) cAMP inhibition in order to prepare for the subsequent potentiator mode assay. […]

Dog intrinsic clearance = format: in vitro ADME
Text: (§1) Compounds may be tested in in vitro assays to investigate both metabolism and pharmacokinetics. These assays may be performed according to known methods as generally described in the following references: Conde-Ceide et al. ACS Med. Chem. Lett. 2015, 6, 716-720; Morris et al. J. Med. Chem. 2014, 57, 10192-10197; and Bubser et al. ACS Chem. Neurosci. 2014, 5, 920-942.

[1] = Human intrinsic clearance; format: in vitro ADME
Text: as §1

P450 3A4 = P450 3A4 (Homo sapiens, UniProt P08684); test: P450 3A4 inhibition; format: in vitro ADME
Text: as §1

[2] = In vivo pharmacokinetic study in rat
[3] = agonist mode, forskolin EC80, no acetylcholine
[4] = agonist mode, forskolin EC80, no acetylcholine, read-out: hM4_cAMP Activity Agonist EC50
[5] = potentiator mode, forskolin EC80 plus ACh EC20
[6] = potentiator mode, forskolin EC80 plus ACh EC20, read-out: hM4_cAMP Activity PAM EC50

P450 3A4, sequence (P08684 whole entry): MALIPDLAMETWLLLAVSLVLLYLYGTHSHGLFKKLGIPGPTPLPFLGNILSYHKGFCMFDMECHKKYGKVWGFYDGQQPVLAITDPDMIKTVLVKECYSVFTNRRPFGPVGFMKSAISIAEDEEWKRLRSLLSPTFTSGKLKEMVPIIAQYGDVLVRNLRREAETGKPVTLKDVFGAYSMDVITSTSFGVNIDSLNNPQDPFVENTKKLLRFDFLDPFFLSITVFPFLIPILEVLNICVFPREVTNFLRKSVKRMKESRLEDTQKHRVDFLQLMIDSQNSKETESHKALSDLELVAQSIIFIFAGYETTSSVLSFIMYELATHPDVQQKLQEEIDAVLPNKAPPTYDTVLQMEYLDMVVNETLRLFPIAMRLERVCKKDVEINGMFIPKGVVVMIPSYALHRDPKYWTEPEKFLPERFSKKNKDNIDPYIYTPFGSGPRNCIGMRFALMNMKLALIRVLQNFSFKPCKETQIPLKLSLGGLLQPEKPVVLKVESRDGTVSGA

[2H]C1([2H])Oc2ccc(OC3CCN(c4nc5nn(C)c(=O)n5c(C)c4C)CC3)cc2OC1([2H])[2H] [Compound A10, 7-(4-((2,3-dihydrobenzo[b][1,4]dioxin-6-yl-2,2,3,3-d4)oxy)piperidin-1-yl)-2,5,6-trimethyl-[1,2,4]triazolo[4,3-a]pyrimidin-3(2H)-one]
hM4_cAMP Activity Agonist % ACh Max (hM4; [3]): 105 % ACh Max
EC50 (hM4; [4]): 7 nM
hM4_cAMP Activity PAM % ACh Max (hM4; [5]): 82 % ACh Max
EC50 (hM4; [6]): 2 nM

[2H]C1([2H])Oc2ccc(OC3CCN(c4nc5nn(C)c(=O)n5cc4C)CC3)cc2OC1([2H])[2H] [Compound A6, 7-(4-((2,3-dihydrobenzo[b][1,4]dioxin-6-yl-2,2,3,3-d4)oxy)piperidin-1-yl)-2,6-dimethyl-[1,2,4]triazolo[4,3-a]pyrimidin-3(2H)-one]
hM4_cAMP Activity Agonist % ACh Max (hM4; [3]): 89 % ACh Max
EC50 (hM4; [4]): 16 nM
hM4_cAMP Activity PAM % ACh Max (hM4; [5]): 70 % ACh Max
EC50 (hM4; [6]): 3 nM

[2H]C1([2H])Oc2ccc(OC3CCN(c4nc5c(cc4C)C(=O)NC5)CC3)cc2OC1([2H])[2H] [Compound 3, 2-(4-((2,3-dihydrobenzo[b][1,4]dioxin-6-yl-2,2,3,3-d4)oxy)piperidin-1-yl)-3-methyl-6,7-dihydro-5H-pyrrolo[3,4-b]pyridin-5-one]
hM4_cAMP Activity Agonist % ACh Max (hM4; [3]): 106 % ACh Max
EC50 (hM4; [4]): 20 nM
hM4_cAMP Activity PAM % ACh Max (hM4; [5]): 94 % ACh Max
EC50 (hM4; [6]): 6 nM
CLint scaled (Dog intrinsic clearance): 19 mL/min/kg
CLint scaled [1]: 15 mL/min/kg
IC50 (P450 3A4): > 100000 nM
Rat oral F ([2]; 3 mg/kg oral): >100%
Kp ([2]; brain, read-out: Rat brain: plasma Kp): 1.2
Kp uu ([2]; brain, unbound, read-out: Rat brain: plasma Kp, uu): 0.7
clearance ([2]; plasma, read-out: Rat CLp): 16.9 mL/min/kg
half-life ([2]; plasma, read-out: Rat Elim. t1/2 (converted)): 1.4 h
Vd ([2]; plasma, read-out: Rat Vss): 1.6 L/kg
